Our source for the IC50 and EC50 values is patent US10030016B2 (Sunesis Pharmaceuticals, Inc., priority 2009, dated 2018).

Counter-ions that a name gives are not always drawn. Like-named read-outs stand apart in the source and are kept apart here.

The target in experiment [1] is PDK1 (Homo sapiens (Human), UniProt O15530). Nature of the experiment: PDK1 kinase assay (coupled PDK1/AKT/FAM-crosstide assay, IMAP fluorescence polarization). In kind it is biochemical. The essentials:
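Coupled cascade: 0.75 nM PDK1 (51-359) → 10 nM AKT2 (140-467-PIFtide) → 100 nM FAM-crosstide. ATP 40 μM, 25° C, 30 min. IMAP FP (ex 485/em 530), 2 h binding. ΔmP vs conc, 4-param fit.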
(In general: Fluorescence polarisation rises when a labelled molecule tumbles more slowly, as on binding a larger partner.)

In experiment [2] the test system is phospho-akt (Thr308) in PC-3 cells. Kind of experiment: Inhibition of phospho-akt (Thr308) in PC-3 cells, MSD phospho-akt 308 ELISA kit. In kind it is cell-based. The settings on record: Homo sapiens, 2 hours, no serum, read-out: EC50. The essentials:
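PC-3 cells (15,000/well, overnight in 10% FBS medium) treated 2 h with three-fold diluted compounds in serum-free medium; DMSO high and 5 μM wortmannin low controls. Lysates captured on BSA-blocked MSD plates overnight at 4 °C, then 1 h antibody detection at RT; phospho-Akt Thr308 read by MSD electrochemiluminescence.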

Setting [3] is: inhibition of P308 Akt in PC-3 cells using MSD.
Where [4] appears, read: inhibition of phospo-PDK1 in vitro.
[5] abbreviates: inhibition of P308 Akt in PC-3 cells, MSD.

Sequence of PDK1 (O15530 51-359): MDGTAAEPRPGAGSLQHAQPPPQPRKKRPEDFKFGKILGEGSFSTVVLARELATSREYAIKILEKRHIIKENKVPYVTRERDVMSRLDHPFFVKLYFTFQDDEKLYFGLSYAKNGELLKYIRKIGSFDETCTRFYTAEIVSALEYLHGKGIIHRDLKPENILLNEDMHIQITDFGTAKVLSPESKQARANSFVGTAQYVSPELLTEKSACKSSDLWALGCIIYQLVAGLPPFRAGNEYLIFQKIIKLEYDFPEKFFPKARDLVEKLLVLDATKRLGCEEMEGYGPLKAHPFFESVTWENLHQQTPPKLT

The term IC50 denotes the concentration at which inhibition is half-maximal. A low value points to higher potency. The term EC50 denotes the concentration at which the effect is half-maximal. As to `C[C@H](NC(=O)c1nc(C#N)cnc1NCc1ccc(-c2cnc(NCCO)cn2)cc1)c1ccc(F)c(F)c1` [Example 230, 6-Cyano-3-{4-[5-(2-hydroxy-ethylamino)-pyrazin-2-yl]-benzylamino}-pyrazine-2-carboxylic acid [(S)-1-(3,4-difluoro-phenyl)-ethyl]-amide], the 50% inhibitory concentration (IC50) in experiment [1] (inhibition of PDK1 in vitro) is below 100 nM. In addition, the EC50 in experiment [2] (setting [3]) fell in the range of 1000 to 10000 nM.

As to `Nc1ncnc2ccc(-c3ccc(CNc4ncc([N+](=O)[O-])cc4C(=O)NCc4ccc(F)c(F)c4)s3)cc12` [Ex. 8.2, 2-{[5-(4-Amino-quinazolin-6-yl)-thiophen-2-ylmethyl]-amino}-N-(3,4-difluoro-benzyl)-5-nitro-nicotinamide], the IC50 in experiment [1] (setting [4]) is below 100 nM. Also, the EC50 in experiment [2] (setting [5]) is below 1000 nM.

Take `CNC(=O)c1cc(S(=O)(=O)NC(C)(C)C)cnc1NCc1ccc(-c2ccc3ncnc(N)c3c2)s1` [Example 8.6.18, 2-(((5-(4-aminoquinazolin-6-yl)thiophen-2-yl)methyl)amino)-5-(N-t-butylsulfamoyl)-N-methylnicotinamide]: in experiment [1] (setting [4]), the IC50 was above 5000 nM. In experiment [2] (setting [5]), the EC50 was in the range of 1000 to 10000 nM.

`O=C(NCc1ccc(F)c(F)c1)c1cc(C(F)(F)F)cnc1N[C@@H](COc1ccc2[nH]c(=O)[nH]c2c1)c1ccccc1` [Example 16.4, (R)-N-(3,4-difluorobenzyl)-2-(2-(2-oxo-2,3-dihydro-1H-benzo[d]imidazol-5-yloxy)-1-phenylethylamino)-5-(trifluoromethyl)nicotinamide] had an IC50 in experiment [1] (setting [4]) of 1000 to 5000 nM. Moreover, the EC50 in experiment [2] (PC-3, 2 h, inhibition of P308 Akt in PC-3 cells, MSD) was in the range of 1000 to 10000 nM.

In experiment [1] (setting [4]), `CC(C)Oc1cc(CNc2ncccc2C(=O)Nc2c(F)cccc2F)cc(-c2c[nH]c3ncc(C(=O)NC4CC4)cc23)c1` [Example 4.1.12, N-cyclopropyl-3-{3-[({3-[(2,6-difluorophenyl)carbamoyl]pyridin-2-yl}amino)methyl]-5-(propan-2-yloxy)phenyl}-1H-pyrrolo[2,3-b] pyridine-5-carboxamide] showed an IC50 of 1000 to 5000 nM. For the same molecule, the EC50 in experiment [2] (setting [5]) is above 10000 nM.

In turn, `Cn1cnc2cnc3ccc(-c4cnc(CNc5ncccc5C(=O)NCc5ccc(F)c(F)c5)s4)cc3c21` [Example 384, N-(3,4-Difluoro-benzyl)-2-{[5-(1-methyl-1H-imidazo [4,5-c]quinolin-8-yl)-thiazol-2-ylmethyl]-amino}-nicotinamide] gave an IC50 in experiment [1] (inhibition of PDK1 in vitro) below 100 nM. For the same molecule, the EC50 in experiment [2] (setting [3]) is below 1000 nM.

Take `Nc1ncnc2ccc(-c3ccc(CNc4ncccc4C(=O)N(Cc4cncc(F)c4)Cc4cncc(F)c4)s3)cc12` [Example 3.64, 2-(((5-(4-aminoquinazolin-6-yl)thiophen-2-yl)methyl)amino)-N,N-bis((5-fluoropyridin-3-yl)methyl)nicotinamide (TFA salt)]: the IC50 in experiment [1] (setting [4]) is above 5000 nM. The EC50 in experiment [2] (setting [5]) fell in the range of 1000 to 10000 nM.

`C[C@H](NC(=O)c1cc(C#N)cnc1NCc1ccc(-c2cnc3[nH]nc(N)c3c2)nc1)c1ccc(F)cc1` [Example 66, 2-{[6-(3-Amino-1H-pyrazolo[3,4-b]pyridin-5-yl)-pyridin-3-ylmethyl]-amino}-5-cyano-N-[(S)-1-(4-fluoro-phenyl)-ethyl]-nicotinamide] came in with an IC50 in experiment [1] (inhibition of PDK1 in vitro) below 100 nM. In addition, the EC50 in experiment [2] (setting [3]) was below 1000 nM.

The molecule `C[C@H](NC(=O)c1cc(C#N)cnc1NCc1ccc(-c2ccc(NCCO)nc2)cc1)c1ccc(F)cc1` [Example 222, 5-Cyano-N-[(S)-1-(4-fluoro-phenyl)-ethyl]-2-{4-[6-(2-hydroxy-ethylamino)-pyridin-3-yl]-benzylamino}-nicotinamide] displayed an IC50 in experiment [1] (inhibition of PDK1 in vitro) of 100 to 1000 nM. Besides, the EC50 in experiment [2] (setting [3]) fell in the range of 1000 to 10000 nM.

On to `Nc1ncnc2ccc(-c3ccc(CNc4nccc5ncn(Cc6ccc(F)c(F)c6)c(=O)c45)s3)cc12` [Ex. 7.8], for which the IC50 in experiment [1] (setting [4]) is below 100 nM. In addition, in experiment [2] (setting [5]), the EC50 is below 1000 nM.

The molecule `C[C@H](NC(=O)c1cc(C#N)cnc1NCc1ccc(-c2cnc(N)c(CCCCN)n2)cc1)c1ccc(F)cc1` [Example 71, 2-{4-[5-Amino-6-(4-amino-butyl)-pyrazin-2-yl]-benzyl-amino}-5-cyano-N-[(S)-1-(4-fluoro-phenyl)-ethyl]-nicotinamide] gave an IC50 in experiment [1] (inhibition of PDK1 in vitro) below 100 nM. The EC50 in experiment [2] (setting [3]) is below 1000 nM.

With `CCn1cc(-c2ccc(CNc3ncc(C(F)(F)F)cc3C(=O)Nc3ccc(F)cc3)cc2)c2c(N)ncnc21` [Example 430, 2-(4-(4-amino-7-ethyl-7H-pyrrolo[2,3-d]pyrimidin-5-yl)benzylamino)-N-(4-fluorophenyl)-5-(trifluoromethyl)nicotinamide], the IC50 in experiment [1] (inhibition of PDK1 in vitro) was below 100 nM. In addition, the EC50 in experiment [2] (setting [3]) fell in the range of 1000 to 10000 nM.

`Nc1ncnc2ccc(-c3ccc(CNc4nccnc4C(=O)Nc4ccc(F)c(F)c4)s3)cc12` [Example 3.72, 3-({[5-(4-aminoquinazolin-6-yl)thiophen-2-yl]methyl}amino)-N-(3,4-difluorophenyl)pyrazine-2-carboxamide (TFA salt)] returned an IC50 in experiment [1] (setting [4]) above 5000 nM. Also, the EC50 in experiment [2] (setting [5]) is above 10000 nM.

On to `Nc1ncnc2ccc(-c3ccc(CNc4ncccc4C(=O)Nc4ccc(C(F)(F)F)cc4)s3)cc12` [Example 3.26, 2-({[5-(4-aminoquinazolin-6-yl)thiophen-2-yl]methyl}amino)-N-[4-(trifluoromethyl)phenyl] pyridine-3-carboxamide (TFA salt)], for which, in experiment [1] (setting [4]), the IC50 is above 5000 nM. The EC50 in experiment [2] (setting [5]) was above 10000 nM.

With `Nc1ncnc2ccc(-c3ccc(CNc4ncccc4C(=O)NCc4cc(F)ccc4C(F)(F)F)s3)cc12` [Example 3.12, 2-({[5-(4-aminoquinazolin-6-yl)thiophen-2-yl]methyl}amino)-N-[5-fluoro-2-(trifluoromethyl)benzyl]pyridine-3-carboxamide (TFA salt)], the IC50 in experiment [1] (setting [4]) is above 5000 nM. In addition, the EC50 in experiment [2] (setting [5]) is above 10000 nM.

Molecule `Nc1cnc(-c2ccc(CNc3nccc4ncn(Cc5ccc(F)c(F)c5)c(=O)c34)cc2)cn1` [Example 381, 5-(4-(5-aminopyrazin-2-yl)benzylamino)-3-(3,4-difluorobenzyl)pyrido[4,3-d] pyrimidin-4(3H)-one] displayed an IC50 in experiment [1] (inhibition of PDK1 in vitro) below 100 nM. Moreover, the EC50 in experiment [2] (setting [3]) was 1000 to 10000 nM.

The molecule `O=C(NCc1ccc(F)c(F)c1)c1cccnc1NCc1ccc(-c2cnc3[nH]ccc3c2)nc1` [Example 328] showed an IC50 in experiment [1] (inhibition of PDK1 in vitro) below 100 nM. Further, the EC50 in experiment [2] (setting [3]) is above 10000 nM.

With `C[C@H](NC(=O)c1nc(C#N)cnc1NCc1ccc(-c2ccc(N)nn2)cc1)c1ccc(F)c(F)c1` [Example 409, (S)-3-(4-(6-aminopyridazin-3-yl)benzylamino)-6-cyano-N-(1-(3,4-difluorophenyl)ethyl)pyrazine-2-carboxamide], the IC50 in experiment [1] (inhibition of PDK1 in vitro) was below 100 nM. Also, in experiment [2] (setting [3]), the EC50 lay within 1000 to 10000 nM.

Molecule `Nc1n[nH]c2ncc(-c3ccc(CNc4ncc(C(F)(F)F)cc4C(=O)N[C@H](CO)c4ccc(F)cc4)cc3)cc12` [Example 266] registered an IC50 in experiment [1] (inhibition of PDK1 in vitro) of 100 to 1000 nM. The concentration giving a half-maximal response (EC50) in experiment [2] (setting [3]) was above 10000 nM.

Take `C[C@H](NC(=O)c1cccnc1NCc1ccc(-c2ccc3ncnn3c2)s1)c1ccc(F)cc1` [Example 2.4, N-[(1S)-1-(4-fluorophenyl)ethyl]-2-({[5-([1,2,4]triazolo[1,5-a]pyridin-6-yl)thiophen-2-yl]methyl}amino)pyridine-3-carboxamide]: in experiment [1] (setting [4]), the IC50 was 1000 to 5000 nM. In experiment [2] (setting [5]), the EC50 is above 10000 nM.

With `Nc1n[nH]c2ncc(-c3ccc(CNc4ncc(C(F)(F)F)cc4C(=O)Nc4ccc(F)cc4)cc3)cc12` [Example 38, 2-[4-(3-Amino-1H-pyrazolo[3,4-b]pyridin-5-yl)-benzylamino]-N-(4-fluoro-phenyl)-5-trifluoromethyl-nicotinamide], in experiment [1] (setting [4]), the IC50 was below 100 nM. The EC50 in experiment [2] (setting [5]) was below 1000 nM.

In experiment [1] (setting [4]), `Nc1ncnc2c1c(-c1ccc(CNc3ncc(C(F)(F)F)cc3C(=O)Nc3ccc(F)cc3)cc1)cn2C1COC1` [Example 443, 2-(4-(4-amino-7-(oxetan-3-yl)-7H-pyrrolo[2,3-d]pyrimidin-5-yl)benzylamino)-N-(4-fluorophenyl)-5-(trifluoromethyl)nicotinamide] came in with an IC50 below 100 nM. Also, the EC50 in experiment [2] (setting [3]) is below 1000 nM.

As to `Nc1cnc(-c2ccc(CNc3ncc(C(F)(F)F)cc3C(=O)Nc3ccc(F)cc3)cn2)cn1` [Example 325], the IC50 in experiment [1] (inhibition of PDK1 in vitro) fell in the range of 100 to 1000 nM. Also, the EC50 in experiment [2] (PC-3, 2 h, inhibition of P308 Akt in PC-3 cells using MSD) was 1000 to 10000 nM.

For the molecule `CNC(=O)c1cnc(NCc2ccc(-c3ccc4ncnc(N)c4c3)s2)c(C(=O)NCc2ccc(F)c(F)c2)c1` [Example 7.24.3, 2-({[5-(4-aminoquinazolin-6-yl)thiophen-2-yl]methyl}amino)-N^3-(3,4-difluorobenzyl)-N^5-methylpyridine-3,5-dicarboxamide], in experiment [1] (setting [4]), the IC50 is below 100 nM. Moreover, in experiment [2] (setting [5]), the EC50 was below 1000 nM.

Consider `C[C@H](NC(=O)c1cc(C#N)cnc1NCc1ccc(-c2cnc(N)c(CC3CCNC3)n2)cc1)c1ccc(F)cc1` (stereo partly drawn) [Example 185, 2-[4-(5-Amino-6-pyrrolidin-3-ylmethyl-pyrazin-2-yl)-benzylamino]-5-cyano-N-[(S)-1-(4-fluoro-phenyl)-ethyl]-nicotinamide], for which the IC50 in experiment [1] (inhibition of PDK1 in vitro) is below 100 nM. The EC50 in experiment [2] (setting [3]) was below 1000 nM.

In experiment [1] (inhibition of PDK1 in vitro), `C[C@H](NC(=O)c1nc(C#N)cnc1NCc1ccc(-c2c[nH]c3ncnc(N)c23)cc1)c1ccc(F)c(F)c1` [Example 315, (S)-3-(4-(4-amino-7H-pyrrolo[2,3-d]pyrimidin-5-yl)benzylamino)-6-cyano-N-(1-(3,4-difluoro-phenyl)ethyl)pyrazine-2-carboxamide] came in with an IC50 below 100 nM. For the same molecule, the EC50 in experiment [2] (setting [3]) is below 1000 nM.
